For experiment [1], the system named is HCV replicon (strain 1b) in HUH-7 cells. Kind of experiment: HCV replicon FRET assay. It counts as cell-based, Hepatitis C virus. From the text: An HCV replicon whole cell system was established as described by Lohmann V, Korner F, Koch J, Herian U, Theilmann L, Bartenschlager R., Science 285(5424): 110-3 (1999). This system enabled us to evaluate the effects of our HCV Protease compounds on HCV RNA replication. Briefly, using the HCV strain 1b sequence described in the Lohmann paper (Assession number: AJ238799), an HCV cDNA was synthesized by Operon Technologies, Inc. (Alameda, Calif.), and the full-length replicon was then assembled in plasmid pGem9zf(+) (Promega, Madison, Wis.) using standard molecular biology techniques. The replicon consists of (i) the HCV 5′ UTR fused to the first 12 amino acids of the capsid protein, (ii) the neomycin phosphotransferase gene (neo), (iii) the IRES from encephalomyocarditis virus (EMCV), and (iv) HCV NS3 to NS5B genes and the HCV 3′ UTR. Plasmid DNAs were linearized with ScaI and RNA transcripts were synthesized in vitro using the T7 MegaScript transcription kit (Ambion, Austin, Tex.) according to manufacturer's directions. In vitro transcripts of the cDNA were transfected into the human hepatoma cell line, HUH-7. […] Resulting cell lines were characterized for positive and negative strand RNA production and protein production over time.
The HCV replicon FRET assay was developed to monitor the inhibitory effects of compounds described in the disclosure on HCV viral replication. HUH-7 cells, constitutively expressing the HCV replicon, were grown in Dulbecco's Modified Eagle Media (DMEM) (Gibco-BRL) containing 10% Fetal calf serum (FCS) (Sigma) and 1 mg/ml G418 (Gibco-BRL). Cells were seeded the night before (1.5×10^4 cells/well) in 96-well tissue-culture sterile plates. Compound and no compound controls were prepared in DMEM containing 4% FCS, 1:100 Penicillin/Streptomysin (Gibco-BRL), 1:100 L-glutamine and 5% DMSO in the dilution plate (0.5% DMSO final concentration in the assay). Compound/DMSO mixes were added to the cells and incubated for 4 days at 37° C. After 4 days, cells were first assessed for cytotoxicity using alamar Blue (Trek Diagnotstic Systems) for a CC50 reading. The toxicity of compound (CC50) was determined by adding 1/10th volume of alamarBlue to the media incubating the cells. After 4 hours, the fluorescence signal from each well was read, with an excitation wavelength at 530 nm and an emission wavelength of 580 nm, using the Cytofluor Series 4000 (Perspective Biosystems). Plates were then rinsed thoroughly with Phosphate-Buffered Saline (PBS) (3 times 150 μl).
In general terms: A replicon is a self-replicating genome or part of one, used to study replication in cells.

The target in experiment [2] is T1, HCV NS3/4A protease complex, BMS strain (UniProt P27958, species not given/STRAIN_BMS).
T1 construct: other: NS3/4A BMS strain; activity range class; numeric values, unit not given; said of H77 and J4L6S; fused on or other part: A three-lysine solubilising tail at the C-terminus of NS4A; A His tag is implied by the pET21b vector and Ni-NTA purification; Both are printed for the H77 and J4L6S constructs and apply to BMS by inference
T1 sequence (P27958 1027-1657, change not shown, one chain of several): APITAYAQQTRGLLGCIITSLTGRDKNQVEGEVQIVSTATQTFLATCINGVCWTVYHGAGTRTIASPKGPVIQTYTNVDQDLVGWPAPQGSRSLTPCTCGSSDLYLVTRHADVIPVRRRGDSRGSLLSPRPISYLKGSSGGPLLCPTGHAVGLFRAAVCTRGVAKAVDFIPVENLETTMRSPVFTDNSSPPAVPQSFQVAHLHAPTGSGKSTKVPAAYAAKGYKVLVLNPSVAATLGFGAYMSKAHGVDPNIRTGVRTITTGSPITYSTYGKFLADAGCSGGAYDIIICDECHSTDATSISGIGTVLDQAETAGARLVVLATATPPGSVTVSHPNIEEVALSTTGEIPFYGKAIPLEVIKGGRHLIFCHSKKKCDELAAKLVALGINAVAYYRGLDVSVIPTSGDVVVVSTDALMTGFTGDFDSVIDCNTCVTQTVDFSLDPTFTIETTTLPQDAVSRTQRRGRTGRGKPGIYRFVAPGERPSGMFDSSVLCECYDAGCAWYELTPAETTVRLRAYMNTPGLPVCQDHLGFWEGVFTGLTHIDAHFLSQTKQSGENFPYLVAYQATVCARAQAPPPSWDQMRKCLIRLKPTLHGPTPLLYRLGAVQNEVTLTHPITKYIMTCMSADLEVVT
Kind of experiment: FRET peptide assay to monitor HCV NS3/4A proteolytic activity (BMS strain). Format: biochemical, Hepatitis C virus (genotype 1a). From the text: HCV NS3 protease complexes, derived from the BMS strain, H77 strain or J4L6S strain, were generated, as described below. These purified recombinant proteins were generated for use in a homogeneous assay (see below) to provide an indication of how effective compounds of the present disclosure would be in inhibiting HCV NS3 proteolytic activity.
Serum from an HCV-infected patient was obtained from Dr. T. Wright, San Francisco Hospital. An engineered full-length cDNA (compliment deoxyribonucleic acid) template of the HCV genome (BMS strain) was constructed from DNA fragments obtained by reverse transcription-PCR (RT-PCR) of serum RNA (ribonucleic acid) and using primers selected on the basis of homology between other genotype 1a strains. From the determination of the entire genome sequence, a genotype 1a was assigned to the HCV isolate according to the classification of Simmonds et al. (See P Simmonds, K A Rose, S Graham, S W Chan, F McOmish, B C Dow, E A Follett, P L Yap and H Marsden, J. Clin. Microbiol., 31(6), 1493-1503 (1993)). […] The infectious clones, H77 (1a genotype) and J4L6S (1b genotype) were obtained from R. Purcell (NIH) and the sequences are published in Genbank (AAB67036, see Yanagi, M., Purcell, R. H., Emerson, S. U. and Bukh, J. Proc. Natl. Acad. Sci. U.S.A. 94(16), 8738-8743 (1997); AF054247, see Yanagi, M., St Claire, M., Shapiro, M., Emerson, S. U., Purcell, R. H. and Bukh, J. Virology 244 (1), 161-172. (1998)).
NS3/4A protease complex-containing fractions were pooled and loaded on a desalting column Superdex-S200 pre-equilibrated with buffer D (25 mM HEPES, pH 7.5, 20% glycerol, 300 mM NaCl, 0.2% Triton X-100, 10 mM βME). Sample was loaded at a flow rate of 1 mL/min. NS3/4A protease complex-containing fractions were pooled and concentrated to approximately 0.5 mg/ml. The purity of the NS3/4A protease complexes, derived from the BMS, H77 and J4L6S strains, were judged to be greater than 90% by SDS-PAGE and mass spectrometry analyses. The enzyme was stored at −80° C., thawed on ice and diluted prior to use in assay buffer.
The purpose of this in vitro assay was to measure the inhibition of HCV NS3 protease complexes, derived from the BMS strain, H77 strain or J4L6S strain, as described above, by compounds of the present disclosure. This assay provides an indication of how effective compounds of the present disclosure would be in inhibiting HCV NS3 proteolytic activity.
In order to monitor HCV NS3/4A protease activity, an NS3/4A peptide substrate was used. The substrate was RET S1 (Resonance Energy Transfer Depsipeptide Substrate; AnaSpec, Inc. cat #22991) (FRET peptide), described by Taliani et al. in Anal. Biochem. 240(2):60-67 (1996). The sequence of this peptide is loosely based on the NS4A/NS4B natural cleavage site for the HCV NS3 protease except there is an ester linkage rather than an amide bond at the cleavage site. The peptide also contains a fluorescence donor, EDANS, near one end of the peptide and an acceptor, DABCYL, near the other end. The fluorescence of the peptide is quenched by […] resonance energy transfer (RET) between the donor and the acceptor, but as the NS3 protease cleaves the peptide the products are released from RET quenching and the fluorescence of the donor becomes apparent.
The peptide substrate was incubated with one of the three recombinant NS3/4A protease complexes, in the absence or presence of a compound of the present disclosure. The inhibitory effects of a compound were determined by monitoring the formation of fluorescent reaction product in real time using a Cytofluor Series 4000.
Assay buffer: 50 mM HEPES, pH 7.5; 0.15 M NaCl; 0.1% Triton; 15% Glycerol; 10 mM βME. Substrate: 2 μM final concentration (from a 2 mM stock solution in DMSO stored at −20° C.). HCV NS3/4A protease type 1a (1b), 2-3 nM final concentration (from a 5 μM stock solution in 25 mM HEPES, pH 7.5, 20% glycerol, 300 mM NaCl, 0.2% Triton-X100, 10 mM βME). […]

Where [3] appears, read: Hepatitis C virus, Huh-7, read-out: HCV Pro Replicon (EC50), HCV replicon cell assay, activity range class.
The mark [4] stands for this setting: read-out: HCV Protease (IC50); NS3/4A BMS strain; activity range class.

The structures appear in SMILES notation. Like-named read-outs stand apart in the source and are kept apart here.

On to `C=C[C@@H]1C[C@]1(NC(=O)[C@@H]1C[C@@H](Oc2nccc3cc(OC)ccc23)CN1C(=O)[C@H](Nc1nc(C)cc(C)n1)C(C)C)C(=O)NS(=O)(=O)C1CC1` [6 first isomer, N-(4,6-dimethyl-2-pyrimidinyl)-D-valyl-(4R)—N-((1R,2S)-1-((cyclopropylsulfonyl)carbamoyl)-2-vinylcyclopropyl)-4-((6-methoxy-1-isoquinolinyl)oxy)-L-prolinamide], for which, in experiment [1] (setting [3]), the EC50 is more than 1000 nM. In addition, the IC50 in experiment [2] (setting [4]) was in the range of 20 to 200 nM.

On to `C=C[C@@H]1C[C@]1(NC(=O)[C@@H]1C[C@@H](Oc2ncc(OC)c3ccc(Cl)cc23)CN1C(=O)[C@@H](Nc1ccc(S(=O)(=O)NC(C)(C)C)cc1)C(C)(C)C)C(=O)NS(=O)(=O)C1CC1` [214 first isomer, N-(4-(tert-butylsulfamoyl)phenyl)-3-methyl-L-valyl-(4R)-4-((7-chloro-4-methoxy-1-isoquinolinyl)oxy)-N-((1R,2S)-1-((cyclopropylsulfonyl)carbamoyl)-2-vinylcyclopropyl)-L-prolinamide], for which the EC50 in experiment [1] (setting [3]) is 100 to 1000 nM. Further, in experiment [2] (setting [4]), the IC50 fell in the range of 0.6 to 20 nM.

`C=C[C@@H]1C[C@]1(NC(=O)[C@@H]1C[C@@H](Oc2ncc(OC)c3ccc(Cl)cc23)CN1C(=O)[C@@H](Nc1ccc(S(=O)(=O)N(C)C)cc1)C(C)(C)C)C(=O)NS(=O)(=O)C1CC1` [224 first isomer, N-(4-(dimethylsulfamoyl)phenyl)-3-methyl-L-valyl-(4R)-4-((7-chloro-4-methoxy-1-isoquinolinyl)oxy)-N-((1R,2S)-1-((cyclopropylsulfonyl)carbamoyl)-2-vinylcyclopropyl)-L-prolinamide]: the EC50 in experiment [1] (setting [3]) was in the range of 100 to 1000 nM. Besides, the IC50 in experiment [2] (setting [4]) was 0.6 to 20 nM.

With `C=C[C@@H]1C[C@]1(NC(=O)[C@@H]1C[C@@H](Oc2nc(OC)cc3cc(OC)ccc23)CN1C(=O)C(Nc1cc(C)cc(C)n1)C(C)C)C(=O)NS(=O)(=O)C1CC1` (stereo partly drawn) [Compound 21, N-(4,6-dimethyl-2-pyridinyl)valyl-(4R)—N-((1R,2S)-1-((cyclopropylsulfonyl)carbamoyl)-2-vinylcyclopropyl)-4-((3,6-dimethoxy-1-isoquinolinyl)oxy)-L-prolinamide], the EC50 in experiment [1] (setting [3]) was in the range of 3 to 100 nM. Moreover, the IC50 in experiment [2] (setting [4]) was in the range of 0.6 to 20 nM.

For the compound `C=C[C@@H]1C[C@]1(NC(=O)[C@@H]1C[C@@H](Oc2ncc(OC)c3ccc(Cl)cc23)CN1C(=O)[C@H](Nc1ccc(C#N)cc1)C(C)(C)C)C(=O)NS(=O)(=O)C1CC1` [205 second isomer, N-(4-cyanophenyl)-3-methyl-D-valyl-(4R)-4-((7-chloro-4-methoxy-1-isoquinolinyl)oxy)-N-((1R,2S)-1-((cyclopropylsulfonyl)carbamoyl)-2-vinylcyclopropyl)-L-prolinamide], the half-maximal effective concentration (EC50) in experiment [1] (setting [3]) was 3 to 100 nM. Also, in experiment [2] (setting [4]), the IC50 is more than 200 nM.

With `C=C[C@@H]1C[C@]1(NC(=O)[C@@H]1C[C@@H](Oc2nccc3cc(OC)ccc23)CN1C(=O)[C@H](Nc1ccccc1)C(C)(C)C)C(=O)NS(=O)(=O)C1CC1` [Compound 15B, 3-methyl-N-phenyl-D-valyl-(4R)—N-((1R,2S)-1-((cyclopropylsulfonyl)carbamoyl)-2-vinylcyclopropyl)-4-((6-methoxy-1-isoquinolinyl)oxy)-L-prolinamide], the EC50 in experiment [1] (Hepatitis C virus, Huh-7, read-out: HCV Pro Replicon (EC50), HCV replicon cell assay, numeric values, unit inferred) came to 3380 nM. For the same compound, the IC50 in experiment [2] (read-out: HCV Protease (IC50); NS3/4A BMS strain; numeric values, unit inferred) is 1900 nM.

`C=C[C@@H]1C[C@]1(NC(=O)[C@@H]1C[C@@H](Oc2ncc(OC)c3ccc(Cl)cc23)CN1C(=O)[C@@H](Nc1cccc(C(=O)NC(C)(C)c2ccccc2)c1)C(C)(C)C)C(=O)NS(=O)(=O)C1CC1` (single isomer, unassigned; isomer 3) [216 first isomer]: the EC50 in experiment [1] (HCV replicon cell assay, activity range class, read-out: HCV Pro Replicon (EC50)) was in the range of 3 to 100 nM. Further, the IC50 in experiment [2] (NS3/4A BMS strain; activity range class; read-out: HCV Protease (IC50)) lay within 0.6 to 20 nM.

Turning to `C=C[C@@H]1C[C@]1(NC(=O)[C@@H]1C[C@@H](Oc2nccc3cc(OC)ccc23)CN1C(=O)C(Nc1cc(C)ccn1)C(C)C)C(=O)NS(=O)(=O)C1CC1` (single isomer, unassigned) [Compound 10], in experiment [1] (setting [3]), the EC50 lay in the range of 3 to 100 nM. For the same compound, the IC50 in experiment [2] (setting [4]) was 0.6 to 20 nM.

Take `C=C[C@@H]1C[C@]1(NC(=O)[C@@H]1C[C@@H](Oc2ncc(OC)c3ccc(Cl)cc23)CN1C(=O)C(Nc1cc(C)cc(C)n1)C(C)(C)C)C(=O)NS(=O)(=O)C1CC1` (single isomer, unassigned) [22 second isomer]: in experiment [1] (read-out: HCV Pro Replicon (EC50), HCV replicon cell assay, activity range class), the EC50 was 100 to 1000 nM. In experiment [2] (setting [4]), the half-maximal inhibitory concentration (IC50) lay within 0.6 to 20 nM.

For the compound `C=C[C@@H]1C[C@]1(NC(=O)[C@@H]1C[C@@H](Oc2ncc(OC)c3ccc(Cl)cc23)CN1C(=O)C(C)Nc1n[s+]([O-])nc1OCC)C(=O)NS(=O)(=O)C1CC1` (stereo partly shown) [Compound 237], in experiment [1] (setting [3]), the EC50 is more than 1000 nM. In experiment [2] (setting [4]), the IC50 is more than 200 nM.

As to `C=C[C@@H]1C[C@]1(NC(=O)[C@@H]1C[C@@H](Oc2nccc3cc(OC)ccc23)CN1C(=O)C(Nc1cc(C)cc(C)n1)C(C)C)C(=O)NS(=O)(=O)N(C)C` (single isomer, unassigned) [Compound 16], the 50% effective concentration (EC50) in experiment [1] (setting [3]) lay within 3 to 100 nM. The IC50 in experiment [2] (setting [4]) was 0.6 to 20 nM.

The term EC50 denotes the concentration needed to bring the measured effect to its halfway point. What is called IC50 is the concentration that inhibits the measured activity by half.
